Patent US8969360B2, “Compounds useful as inhibitors of ATR kinase” (Vertex Pharmaceuticals Incorporated, priority 2013, dated 2015)

Key:
ATR kinase = target: T1, ATR kinase (Homo sapiens, UniProt Q13535); experiment: ATR Inhibition Assay (radioactive-phosphate incorporation); type: biochemical; conditions: Ki(app); 5 nM full-length ATR, 10 μM ATP, 800 μM target peptide, 25° C.
T1 construct: Assays were carried out at 25° C. in the presence of 5 nM full-length ATR
Description: Compounds were screened for their ability to inhibit ATR kinase using a radioactive-phosphate incorporation assay. Assays were carried out in a mixture of 50 mM Tris/HCl (pH 7.5), 10 mM MgCl2 and 1 mM DTT. Final substrate concentrations were 10 μM [γ-33P]ATP (3 mCi 33P ATP/mmol ATP, Perkin Elmer) and 800 μM target peptide (ASELPASQPQPFSAKKK (SEQ. ID NO: 1)).
Assays were carried out at 25° C. in the presence of 5 nM full-length ATR. An assay stock buffer solution was prepared containing all of the reagents listed above, with the exception of ATP and the test compound of interest. 13.5 μL of the stock solution was placed in a 96 well plate followed by addition of 2 μL of DMSO stock containing serial dilutions of the test compound (typically starting from a final concentration of 15 μM with 3-fold serial dilutions) in duplicate (final DMSO concentration 7%). The plate was pre-incubated for 10 minutes at 25° C. and the reaction initiated by addition of 15 μL [γ-33P]ATP (final concentration 10 μM).
The reaction was stopped after […] by the addition of 30 μL, 0.1M phosphoric acid containing 2 mM ATP. A multiscreen phosphocellulose filter 96-well plate (Millipore, Cat no. MAPHN0B50) was pretreated with 100 μL 0.2M phosphoric acid prior to the addition of 45 μL of the stopped assay mixture. The plate was washed with 5×200 μL 0.2M phosphoric acid. After drying, 100 μL Optiphase ‘SuperMix’ liquid scintillation cocktail (Perkin Elmer) was added to the well prior to scintillation counting (1450 Microbeta Liquid Scintillation Counter, Wallac).
After removing mean background values for all of the data points, Ki(app) data were calculated from non-linear regression analysis of the initial rate data using the Prism software package (GraphPad Prism version 3.0cx for Macintosh, GraphPad Software, San Diego Calif., USA).
Compounds with a Ki value of <0.01 μM are marked with “+++.” Compounds with a Ki value >0.01 μM but <1 μM are marked with “++.” Compounds with a Ki value >1 μM but <5 μM are marked with “+.”

[1] = system: HCT116 colorectal cancer cells; experiment: Cisplatin Sensitization Assay (96 h cell viability MTS); type: cell-based; conditions: concentration of compound required to reduce the IC50 of Cisplatin alone by at least 3-fold; HCT116, 96 h MTS
Description: Compounds can be screened for their ability to sensitize HCT116 colorectal cancer cells to Cisplatin using a 96 h cell viability (MTS) assay. […] Compounds and Cisplatin are then both added simultaneously to the cell media in 2-fold serial dilutions from a top final concentration of 10 μM as a full matrix of concentrations in a final cell volume of 200 μl, and the cells are then incubated at 37° C. in 5% CO2. After 96 h, 40 μl of MTS reagent (Promega G358a) is added to each well and the cells are incubated for 1 h at 37° C. in 5% CO2. Finally, absorbance is measured at 490 nm using a SpectraMax Plus 384 reader (Molecular Devices) and the concentration of compound required to reduce the IC50 of Cisplatin alone by at least 3-fold (to 1 decimal place) can be reported.
Compounds with a Cisplatin sensitization value of <0.02 μM are marked with “+++.” Compounds with a Cisplatin sensitization value>0.02 μM but <0.2 μM are marked with “++.” Compounds with a Cisplatin sensitization value >0.2 μM but <5 μM are marked with “+.”

T1 sequence (Q13535 whole entry): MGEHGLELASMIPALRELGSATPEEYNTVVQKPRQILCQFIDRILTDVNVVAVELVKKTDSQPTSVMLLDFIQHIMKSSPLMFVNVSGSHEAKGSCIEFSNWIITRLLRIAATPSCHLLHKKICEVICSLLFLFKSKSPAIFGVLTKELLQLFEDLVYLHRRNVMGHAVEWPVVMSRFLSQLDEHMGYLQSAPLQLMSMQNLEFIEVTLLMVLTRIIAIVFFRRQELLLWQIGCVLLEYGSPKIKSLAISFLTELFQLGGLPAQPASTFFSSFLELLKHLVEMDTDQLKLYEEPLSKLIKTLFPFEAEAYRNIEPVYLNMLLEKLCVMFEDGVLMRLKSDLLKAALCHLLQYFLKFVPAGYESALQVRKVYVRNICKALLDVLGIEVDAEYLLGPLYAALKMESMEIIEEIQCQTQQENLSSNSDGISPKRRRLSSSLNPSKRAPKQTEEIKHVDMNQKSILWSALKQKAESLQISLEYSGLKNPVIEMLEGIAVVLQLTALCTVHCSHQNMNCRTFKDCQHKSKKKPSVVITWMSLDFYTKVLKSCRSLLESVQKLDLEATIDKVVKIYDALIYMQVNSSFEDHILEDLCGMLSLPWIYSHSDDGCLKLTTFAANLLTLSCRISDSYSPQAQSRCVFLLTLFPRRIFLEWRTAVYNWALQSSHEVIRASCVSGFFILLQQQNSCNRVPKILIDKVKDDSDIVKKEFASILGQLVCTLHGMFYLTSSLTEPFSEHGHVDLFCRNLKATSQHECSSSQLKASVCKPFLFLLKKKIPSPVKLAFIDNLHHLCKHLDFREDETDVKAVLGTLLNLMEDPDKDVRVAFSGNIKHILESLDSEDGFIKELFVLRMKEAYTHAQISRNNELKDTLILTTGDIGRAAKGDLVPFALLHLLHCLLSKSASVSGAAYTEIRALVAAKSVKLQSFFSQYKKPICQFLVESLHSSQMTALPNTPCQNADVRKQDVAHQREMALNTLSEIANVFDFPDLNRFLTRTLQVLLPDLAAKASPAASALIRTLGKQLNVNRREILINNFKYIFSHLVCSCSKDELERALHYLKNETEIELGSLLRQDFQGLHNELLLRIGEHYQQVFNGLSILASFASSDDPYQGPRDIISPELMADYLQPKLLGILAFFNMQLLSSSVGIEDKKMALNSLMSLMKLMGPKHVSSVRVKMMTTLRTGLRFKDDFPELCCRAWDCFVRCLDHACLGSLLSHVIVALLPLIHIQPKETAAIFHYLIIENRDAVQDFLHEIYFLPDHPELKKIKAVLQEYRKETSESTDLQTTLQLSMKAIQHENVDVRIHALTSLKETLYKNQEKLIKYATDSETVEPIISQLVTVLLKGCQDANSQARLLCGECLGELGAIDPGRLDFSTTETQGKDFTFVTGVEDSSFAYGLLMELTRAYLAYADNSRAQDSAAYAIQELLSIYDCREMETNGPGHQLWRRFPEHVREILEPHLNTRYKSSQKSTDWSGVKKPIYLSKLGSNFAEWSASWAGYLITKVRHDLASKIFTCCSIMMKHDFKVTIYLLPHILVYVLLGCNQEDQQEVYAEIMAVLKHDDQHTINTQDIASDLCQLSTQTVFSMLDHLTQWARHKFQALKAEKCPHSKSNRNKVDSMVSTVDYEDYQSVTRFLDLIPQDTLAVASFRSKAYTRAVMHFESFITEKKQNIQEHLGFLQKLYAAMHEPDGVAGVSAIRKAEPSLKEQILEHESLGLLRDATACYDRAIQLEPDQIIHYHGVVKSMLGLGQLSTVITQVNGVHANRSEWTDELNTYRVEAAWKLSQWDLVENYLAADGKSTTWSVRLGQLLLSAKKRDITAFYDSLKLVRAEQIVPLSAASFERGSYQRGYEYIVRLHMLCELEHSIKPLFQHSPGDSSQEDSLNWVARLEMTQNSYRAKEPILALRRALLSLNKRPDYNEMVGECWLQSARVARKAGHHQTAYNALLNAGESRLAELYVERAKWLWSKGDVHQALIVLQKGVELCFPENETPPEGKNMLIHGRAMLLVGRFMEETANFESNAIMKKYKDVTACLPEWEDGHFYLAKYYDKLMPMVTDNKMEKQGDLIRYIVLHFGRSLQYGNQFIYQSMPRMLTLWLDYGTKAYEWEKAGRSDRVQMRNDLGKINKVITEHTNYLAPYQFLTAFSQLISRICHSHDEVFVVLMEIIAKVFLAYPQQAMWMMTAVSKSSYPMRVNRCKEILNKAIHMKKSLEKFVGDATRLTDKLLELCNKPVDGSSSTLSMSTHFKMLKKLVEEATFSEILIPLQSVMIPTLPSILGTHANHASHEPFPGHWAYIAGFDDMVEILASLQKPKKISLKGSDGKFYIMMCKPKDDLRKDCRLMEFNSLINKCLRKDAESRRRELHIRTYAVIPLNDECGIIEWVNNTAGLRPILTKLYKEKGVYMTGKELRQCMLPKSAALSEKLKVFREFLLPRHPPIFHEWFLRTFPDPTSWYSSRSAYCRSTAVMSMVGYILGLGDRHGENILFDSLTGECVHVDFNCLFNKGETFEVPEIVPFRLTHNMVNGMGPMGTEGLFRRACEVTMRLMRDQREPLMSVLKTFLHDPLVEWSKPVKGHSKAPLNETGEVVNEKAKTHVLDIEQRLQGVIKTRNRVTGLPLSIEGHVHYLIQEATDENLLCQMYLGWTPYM

| Ki (ATR kinase) [nM] | Structure (SMILES) | Synergy with Cisplatin [1] |
| --- | --- | --- |
| 10 to 1000 | Nc1nn2ccc(C(F)(F)F)nc2c1C(=O)Nc1cnccc1OC1CC2(CCN2)C1 (centres unmarked) [I-O-22, N-(4-((4s,6r)-1-azaspiro[3.3]heptan-6-yloxy)pyridin-3-yl)-2-amino-5-(trifluoromethyl)pyrazolo[1,5-a]pyrimidine-3-carboxamide] | ++ (Compounds with a Cisplatin sensitization value>0.02 μM but <0.2 μM are marked with “++.”) |
| 10 to 1000 | COc1ccncc1NC(=O)c1c(N)nn2ccc(OCCCN3CCC3)nc12 [I-O-63, 2-amino-5-(3-(azetidin-1-yl)propoxy)-N-(4-methoxypyridin-3-yl)pyrazolo[1,5-a]pyrimidine-3-carboxamide] | ++ (Compounds with a Cisplatin sensitization value>0.02 μM but <0.2 μM are marked with “++.”) |
| 10 to 1000 | COc1ccncc1NC(=O)c1c(N)nn2ccc(OC3CCCN(C)C3)nc12 (centres unmarked) [I-O-58, 2-amino-N-(4-methoxypyridin-3-yl)-5-((1-methylpiperidin-3-yl)oxy)pyrazolo[1,5-a]pyrimidine-3-carboxamide] | ++ (Compounds with a Cisplatin sensitization value>0.02 μM but <0.2 μM are marked with “++.”) |
| 1000 to 5000 | CC(C)Oc1ccncc1NC(=O)c1c(N)nn2ccc(N3CCN(C)CC3)nc12 [I-O-79, 2-amino-N-(4-isopropoxypyridin-3-yl)-5-(4-methylpiperazin-1-yl)pyrazolo[1,5-a]pyrimidine-3-carboxamide] | + (Compounds with a Cisplatin sensitization value >0.2 μM but <5 μM are marked with “+.”) |
| 10 to 1000 | Nc1nn2ccc(C(F)(F)F)nc2c1C(=O)Nc1cnccc1OCC1CCC(N)CC1 (centres unmarked) [I-O-37, 2-amino-N-(4-((4-aminocyclohexyl)methoxy)pyridin-3-yl)-5-(trifluoromethyl)pyrazolo[1,5-a]pyrimidine-3-carboxamide] | ++ (Compounds with a Cisplatin sensitization value>0.02 μM but <0.2 μM are marked with “++.”) |
| 10 to 1000 | CN(C)CCOc1ccncc1NC(=O)c1c(N)nn2ccc(C(F)(F)F)nc12 [I-O-17, 2-amino-N-(4-(2-(dimethylamino)ethoxy)pyridin-3-yl)-5-(trifluoromethyl)pyrazolo[1,5-a]pyrimidine-3-carboxamide] | ++ (Compounds with a Cisplatin sensitization value>0.02 μM but <0.2 μM are marked with “++.”) |
| < 10 | COc1ccncc1NC(=O)c1c(N)nn2ccc(NCC3COC3)nc12 [I-O-68, 2-amino-N-(4-methoxypyridin-3-yl)-5-((oxetan-3-ylmethyl)amino)pyrazolo[1,5-a]pyrimidine-3-carboxamide] | ++ (Compounds with a Cisplatin sensitization value>0.02 μM but <0.2 μM are marked with “++.”) |
| 10 to 1000 | COc1ccncc1NC(=O)c1c(N)nn2ccc(N3CC4(COC4)C3)nc12 [I-O-69, 2-amino-N-(4-methoxypyridin-3-yl)-5-(2-oxa-6-azaspiro[3.3]heptan-6-yl)pyrazolo[1,5-a]pyrimidine-3-carboxamide] |  |
| 10 to 1000 | COc1ccncc1NC(=O)c1c(N)nn2ccc(OCCN3CCCC3)nc12 [I-O-60, 2-amino-N-(4-methoxypyridin-3-yl)-5-(2-(pyrrolidin-1-yl)ethoxy)pyrazolo[1,5-a]pyrimidine-3-carboxamide] | ++ (Compounds with a Cisplatin sensitization value>0.02 μM but <0.2 μM are marked with “++.”) |
| 10 to 1000 | CNCc1ccn2nc(N)c(C(=O)Nc3cnccc3OC)c2n1 [I-O-66, 2-amino-N-(4-methoxypyridin-3-yl)-5-((methylamino)methyl)pyrazolo[1,5-a]pyrimidine-3-carboxamide] | ++ (Compounds with a Cisplatin sensitization value>0.02 μM but <0.2 μM are marked with “++.”) |
| 10 to 1000 | COc1ccncc1NC(=O)c1c(N)nn2ccc(C(C)(C)C#N)nc12 [I-O-52, 2-amino-5-(2-cyanopropan-2-yl)-N-(4-methoxypyridin-3-yl)pyrazolo[1,5-a]pyrimidine-3-carboxamide] | +++ (Compounds with a Cisplatin sensitization value of <0.02 μM are marked with “+++.”) |
| 10 to 1000 | Nc1nn2ccc(C(F)(F)F)nc2c1C(=O)Nc1cnccc1N1CCN(CCO)CC1 [I-N-3, 2-amino-N-(4-(4-(2-hydroxyethyl)piperazin-1-yl)pyridin-3-yl)-5-(trifluoromethyl)pyrazolo[1,5-a]pyrimidine-3-carboxamide] |  |
| < 10 | COc1ccncc1NC(=O)c1c(N)nn2ccc(C(F)(F)F)nc12 [I-O-1, 2-amino-N-(4-methoxypyridin-3-yl)-5-(trifluoromethyl)pyrazolo[1,5-a]pyrimidine-3-carboxamide] | +++ (Compounds with a Cisplatin sensitization value of <0.02 μM are marked with “+++.”) |
| 10 to 1000 | CC(C)Oc1ccncc1NC(=O)c1c(N)nn2ccc(C(F)(F)F)nc12 [I-O-4, 2-amino-N-(4-isopropoxypyridin-3-yl)-5-(trifluoromethyl)pyrazolo[1,5-a]pyrimidine-3-carboxamide] | +++ (Compounds with a Cisplatin sensitization value of <0.02 μM are marked with “+++.”) |
| < 10 | Nc1nn2ccc(C(F)(F)F)nc2c1C(=O)Nc1cnccc1OCCO [I-O-13, 2-amino-N-(4-(2-hydroxyethoxy)pyridin-3-yl)-5-(trifluoromethyl)pyrazolo[1,5-a]pyrimidine-3-carboxamide] | +++ (Compounds with a Cisplatin sensitization value of <0.02 μM are marked with “+++.”) |
| 10 to 1000 | CN(C)C1CCC(COc2ccncc2NC(=O)c2c(N)nn3ccc(C(F)(F)F)nc23)CC1 (centres unmarked) [I-O-42, 2-amino-N-(4-((4-(dimethylamino)cyclohexyl)methoxy)pyridin-3-yl)-5-(trifluoromethyl)pyrazolo[1,5-a]pyrimidine-3-carboxamide] | +++ (Compounds with a Cisplatin sensitization value of <0.02 μM are marked with “+++.”) |
| < 10 | Nc1nn2ccc(C(F)(F)F)nc2c1C(=O)Nc1cnccc1OCC(F)(F)F [I-O-3, 2-amino-N-(4-(2,2,2-trifluoroethoxy)pyridin-3-yl)-5-(trifluoromethyl)pyrazolo[1,5-a]pyrimidine-3-carboxamide] | +++ (Compounds with a Cisplatin sensitization value of <0.02 μM are marked with “+++.”) |
| 10 to 1000 | CN1CC(Oc2ccncc2NC(=O)c2c(N)nn3ccc(C(F)(F)F)nc23)C1 [I-O-39, 2-amino-N-(4-((1-methylazetidin-3-yl)oxy)pyridin-3-yl)-5-(trifluoromethyl)pyrazolo[1,5-a]pyrimidine-3-carboxamide] |  |
| 10 to 1000 | CC(C)(C#N)c1ccn2nc(N)c(C(=O)Nc3cnccc3OC3CNC3)c2n1 [I-O-53, 2-amino-N-(4-(azetidin-3-yloxy)pyridin-3-yl)-5-(2-cyanopropan-2-yl)pyrazolo[1,5-a]pyrimidine-3-carboxamide] |  |
| 10 to 1000 | NCC1CCN(c2ccncc2NC(=O)c2c(N)nn3ccc(C(F)(F)F)nc23)CC1 [I-N-2, 2-amino-N-(4-(4-(aminomethyl)piperidin-1-yl)pyridin-3-yl)-5-(trifluoromethyl)pyrazolo[1,5-a]pyrimidine-3-carboxamide] |  |
| 10 to 1000 | CNC1CCN(c2ccn3nc(N)c(C(=O)Nc4cnccc4OC)c3n2)C1 (centres unmarked) [I-O-81, 2-amino-N-(4-methoxypyridin-3-yl)-5-(3-(methylamino)pyrrolidin-1-yl)pyrazolo[1,5-a]pyrimidine-3-carboxamide] |  |
| 10 to 1000 | Nc1nn2ccc(C(F)(F)F)nc2c1C(=O)Nc1cnccc1OC1CCC2(CC1)OCCO2 [I-O-7, N-(4-(1,4-dioxaspiro[4.5]decan-8-yloxy)pyridin-3-yl)-2-amino-5-(trifluoromethyl)pyrazolo[1,5-a]pyrimidine-3-carboxamide] |  |

| Structure (SMILES) | Ki (ATR kinase) [nM] | Synergy with Cisplatin [1] |
| --- | --- | --- |
| Nc1nn2ccc(C(F)(F)F)nc2c1C(=O)Nc1cnccc1OC1CN2CCC1CC2 (centres unmarked) [I-O-29, 2-amino-N-(4-(quinuclidin-3-yloxy)pyridin-3-yl)-5-(trifluoromethyl)pyrazolo[1,5-a]pyrimidine-3-carboxamide] | 10 to 1000 |  |
